Laboratory results: the NIST ThermoML archive (doi:10.1021/je100605v)

Settings: Liquid, Closed cell (Static) method

CCO[Si](CC)(OCC)OCC [ethyltriethoxysilane]
Settings	vapor or sublimation pressure [kPa]
335 K	2.325
340.8 K	3.325
346.2 K	4.325
350.4 K	5.325
359.9 K	8.325
367.1 K	11.32
372.9 K	14.32
377.7 K	17.32
382 K	20.32
385.8 K	23.32
389 K	26.33
392 K	29.32
394.8 K	32.33
397.4 K	35.33
399.9 K	38.32
402.2 K	41.33
404.1 K	44.33
405.5 K	47.32
407.6 K	50.33
410.1 K	53.32
411.9 K	56.33
413.7 K	59.33
415.4 K	62.32
416.8 K	65.32
418.3 K	68.33
419.4 K	71.33
420.6 K	74.33
421.8 K	77.33
423.7 K	80.32
425.4 K	83.33
426.7 K	86.33
427.9 K	89.33
429.1 K	92.33
430.2 K	95.32
431.3 K	98.32
432 K	100.33
